Experiments:
Type in all cases: cell-based
Y5R = target: T1, Y5R (Homo sapiens, UniProt Q15761); experiment: CaFlux Assay (FLIPR), Y5R; conditions: for Emax: read-out: Y5R FLIPR, percentage in parentheses under the EC50;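 as to Emax: percent of the maximal response of the positive control agonist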
T1 sequence (Q15761 1-445): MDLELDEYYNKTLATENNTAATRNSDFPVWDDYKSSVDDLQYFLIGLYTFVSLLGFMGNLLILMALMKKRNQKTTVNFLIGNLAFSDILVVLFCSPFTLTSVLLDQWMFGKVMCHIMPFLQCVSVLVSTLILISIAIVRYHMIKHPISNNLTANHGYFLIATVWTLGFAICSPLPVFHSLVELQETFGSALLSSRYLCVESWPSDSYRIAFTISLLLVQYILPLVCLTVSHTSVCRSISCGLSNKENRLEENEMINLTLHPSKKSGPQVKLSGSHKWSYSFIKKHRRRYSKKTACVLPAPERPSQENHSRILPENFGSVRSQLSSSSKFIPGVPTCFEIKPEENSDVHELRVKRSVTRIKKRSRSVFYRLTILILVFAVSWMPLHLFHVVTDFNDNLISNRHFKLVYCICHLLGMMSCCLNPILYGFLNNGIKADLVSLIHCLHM

hNPY2R [1] = target: T2, hNPY2R (Homo sapiens, UniProt P49146); experiment: cAMP Agonist Assay, HEK293/hNPY2R cells; set-up: expressed in transfected cells; host or cells: HEK293/hNPY2R (G418 selection)
T2 sequence (P49146 1-381): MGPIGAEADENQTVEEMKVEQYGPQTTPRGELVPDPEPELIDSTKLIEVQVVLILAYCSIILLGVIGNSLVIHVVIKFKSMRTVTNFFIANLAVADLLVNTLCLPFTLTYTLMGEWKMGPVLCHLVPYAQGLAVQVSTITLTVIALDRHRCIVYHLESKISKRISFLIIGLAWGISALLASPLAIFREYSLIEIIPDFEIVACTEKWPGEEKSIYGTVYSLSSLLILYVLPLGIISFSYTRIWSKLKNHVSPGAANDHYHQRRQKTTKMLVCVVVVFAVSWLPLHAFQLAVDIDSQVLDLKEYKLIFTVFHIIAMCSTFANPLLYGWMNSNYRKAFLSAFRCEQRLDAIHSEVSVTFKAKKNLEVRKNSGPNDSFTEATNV
Protocol: On the first day, medium was discarded, and the monolayer cells were washed with 10 mL PBS per flask (T225). […] The flask was gently tapped and the cell suspension was pooled. Each flask was rinsed with 10 mL plating medium and centrifuged at 1000 rpm for 5 min. The suspension was pooled and counted. The suspension was resuspended in plating medium at a density of 2.0×10^5 cells/mL for HEK293/hNPY2R. 50 microliters of cells (HEK293/hNPY2R-10,000 cells/well) were transferred into the 384-well plate using Multi-drop dispenser. The plates were incubated at 37° C. overnight. […] The media and reagents were allowed to come to room temperature. Before the dilutions were prepared, the stock solution of stimulating compound in dimethyl sulphoxide (DMSO, Sigma, cat #D2650) was allowed to warm up to 32 C for 5-10 min. […] The cell medium was tapped off with a gentle inversion of the cell plate on a paper towel. 50 μL of stimulation medium was placed per well (each concentration done in four replicates). The plates were incubated at room temperature for 30 min, and the cells were checked under a microscope for toxicity. After 30 minutes of treatment, the stimulation media was discarded and 50 mL/well of Assay Lysis Buffer (provided in the Tropix kit) was added. The plates were incubated for 45 min@37° C. 20 μL of the lysate was transferred from stimulation plates into the pre-coated antibody plates (384-well) from the Tropix kit. 10 μL of AP conjugate and 20 μL of anti-cAMP antibody was added. The plates were incubated at room temperature while shaking for 1 hour. The plates were then washed 5 times with Wash Buffer, 70 μL per well for each wash. The plates were tapped to dry. 30 μL/well of CSPD/Saphire-II RTU substrate/enhancer solution was added and incubated for 45 min @ RT (shake). Signal for 1 sec/well in a Luminometer.

Y1R = target: T3, Y1R (Homo sapiens, UniProt P25929); experiment: CaFlux Assay (FLIPR), Y1R
T3 sequence (P25929 1-384): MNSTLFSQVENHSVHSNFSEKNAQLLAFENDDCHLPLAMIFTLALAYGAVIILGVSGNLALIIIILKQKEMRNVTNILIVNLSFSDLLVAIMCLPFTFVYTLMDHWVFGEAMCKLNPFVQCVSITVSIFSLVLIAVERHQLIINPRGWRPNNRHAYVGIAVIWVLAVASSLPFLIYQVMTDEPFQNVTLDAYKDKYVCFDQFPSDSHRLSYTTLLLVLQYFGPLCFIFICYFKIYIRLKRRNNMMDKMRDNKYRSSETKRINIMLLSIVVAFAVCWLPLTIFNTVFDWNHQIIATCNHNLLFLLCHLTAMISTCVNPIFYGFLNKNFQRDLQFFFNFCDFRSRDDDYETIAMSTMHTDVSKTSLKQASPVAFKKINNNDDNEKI

Y4R = Y4R (Homo sapiens, UniProt P50391); experiment: CaFlux Assay (FLIPR), Y4R
Y4R, sequence (P50391 whole entry): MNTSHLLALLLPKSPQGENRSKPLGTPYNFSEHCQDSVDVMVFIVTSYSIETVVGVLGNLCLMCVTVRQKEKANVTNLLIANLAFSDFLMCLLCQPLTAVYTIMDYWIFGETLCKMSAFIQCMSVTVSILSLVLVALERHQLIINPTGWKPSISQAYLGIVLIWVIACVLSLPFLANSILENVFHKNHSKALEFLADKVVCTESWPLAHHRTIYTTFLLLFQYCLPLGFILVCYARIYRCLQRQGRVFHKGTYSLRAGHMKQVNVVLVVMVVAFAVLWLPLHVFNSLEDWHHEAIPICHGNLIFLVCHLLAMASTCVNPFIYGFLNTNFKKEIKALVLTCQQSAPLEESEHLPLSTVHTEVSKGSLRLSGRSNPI

hNPY2R [2] = target: T2, hNPY2R; experiment: CaFlux Assay (FLIPR), Y2R; set-up: expressed in transfected cells; host or cells: HEK-293 stably expressing G protein chimera Gaqi9

**Q.** Which results are given for `CCCCCCCCCCCCCCCC(=O)NCCC(=O)N[C@@H](CCC(=O)NCCCC[C@H](NC(=O)[C@@H](N)[C@@H](C)CC)C(=O)N1CCN(c2ccc3ncn(CC(=O)N[C@@H](CCCNC(=N)N)C(=O)N[C@@H](Cc4c[nH]cn4)C(=O)N[C@@H](Cc4ccc(O)cc4)C(=O)N[C@@H](CC(C)C)C(=O)N[C@@H](CC(N)=O)C(=O)N[C@@H](Cc4c[nH]c5ccccc45)C(=O)N[C@H](C(=O)N[C@H](C(=O)N[C@@H](CCCNC(=N)N)C(=O)N[C@@H](CCC(N)=O)C(=O)N(C)[C@@H](CCCNC(=N)N)C(=O)N[C@@H](Cc4ccc(O)cc4)C(N)=O)[C@@H](C)O)C(C)C)c(=O)c3c2)CC1)C(=O)O` [Example 26]?
**A.** EC50 (Y5R): 129 nM; Emax (Y5R): 70%; EC50 (hNPY2R [1]): 0.15 nM; EC50 (Y1R): > 5000 nM; EC50 (Y4R): > 5000 nM; EC50 (hNPY2R [2]): 0.045 nM

**Q.** With `CC[C@H](C)[C@H](N)C(=O)N[C@@H](CCCCNC(=O)CC[C@H](NC(=O)CC[C@H](NC(=O)CCCCCCCCCCCCCCCBr)C(=O)O)C(=O)O)C(=O)N1CCN(c2ccc3ncn(CC(=O)N[C@@H](CCCNC(=N)N)C(=O)N[C@@H](Cc4c[nH]cn4)C(=O)N[C@@H](Cc4ccc(O)cc4)C(=O)N[C@@H](CC(C)C)C(=O)N[C@@H](CC(N)=O)C(=O)N[C@@H](Cc4c[nH]c5ccccc45)C(=O)N[C@H](C(=O)N[C@H](C(=O)N[C@@H](CCCNC(=N)N)C(=O)N[C@@H](CCC(N)=O)C(=O)N(C)[C@@H](CCCNC(=N)N)C(=O)N[C@@H](Cc4ccc(O)cc4)C(N)=O)[C@@H](C)O)C(C)C)c(=O)c3c2)CC1` [Example 27] as the molecule, how does the EC50 (Y5R) read?
**A.** 2540 nM

**Q.** And the EC50 (hNPY2R [1])?
**A.** 0.4 nM

**Q.** And the EC50 (Y1R)?
**A.** > 5000 nM

**Q.** And the EC50 (Y4R)?
**A.** > 5000 nM

**Q.** And the EC50 (hNPY2R [2])?
**A.** 0.23 nM

**Q.** Which results are given for `CCCCCCCCCCCCCCCC(=O)N[C@@H](CCC(=O)N[C@@H](CCC(=O)NCCCC[C@H](NC(=O)[C@@H](NC(=O)[C@@H]1CCC(=O)N1)[C@@H](C)CC)C(=O)N1CCN(c2ccc3ncn(CC(=O)N[C@@H](CCCNC(=N)N)C(=O)N[C@@H](Cc4c[nH]cn4)C(=O)N[C@@H](Cc4ccc(O)cc4)C(=O)N[C@@H](CC(C)C)C(=O)N[C@@H](CC(N)=O)C(=O)N[C@@H](Cc4c[nH]c5ccccc45)C(=O)N[C@H](C(=O)N[C@H](C(=O)N[C@@H](CCCNC(=N)N)C(=O)N[C@@H](CCC(N)=O)C(=O)N(C)[C@@H](CCCNC(=N)N)C(=O)N[C@@H](Cc4ccc(O)cc4)C(N)=O)[C@@H](C)O)C(C)C)c(=O)c3c2)CC1)C(=O)O)C(=O)O` [Example 28]?
**A.** EC50 (Y5R): 2060 nM; EC50 (hNPY2R [1]): 0.21 nM; EC50 (Y1R): > 5000 nM; EC50 (Y4R): > 5000 nM; EC50 (hNPY2R [2]): 0.176 nM

**Q.** Which results are given for `CCCCCCCCCCCCCCCCCCCC(=O)NCCCCCC(=O)NCCCC[C@H](NC(=O)[C@@H](N)[C@@H](C)CC)C(=O)N1CCN(c2ccc3ncn(CC(=O)N[C@@H](CCCNC(=N)N)C(=O)N[C@@H](Cc4c[nH]cn4)C(=O)N[C@@H](Cc4ccc(O)cc4)C(=O)N[C@@H](CC(C)C)C(=O)N[C@@H](CC(N)=O)C(=O)N[C@@H](Cc4c[nH]c5ccccc45)C(=O)N[C@H](C(=O)N[C@H](C(=O)N[C@@H](CCCNC(=N)N)C(=O)N[C@@H](CCC(N)=O)C(=O)N(C)[C@@H](CCCNC(=N)N)C(=O)N[C@@H](Cc4ccc(O)cc4)C(N)=O)[C@@H](C)O)C(C)C)c(=O)c3c2)CC1` [Example 30]?
**A.** EC50 (Y5R): 306 nM; Emax (Y5R): 28%; EC50 (hNPY2R [1]): 0.14 nM; EC50 (Y1R): > 5000 nM; EC50 (Y4R): > 5000 nM; EC50 (hNPY2R [2]): 0.96 nM

**Q.** `CCCCCCCCCCCCCCCCCCCC(=O)N[C@@H](CCC(=O)N[C@@H](CCC(=O)NCCCC[C@H](NC(=O)[C@@H](N)[C@@H](C)CC)C(=O)N1CCN(c2ccc3ncn(CC(=O)N[C@@H](CCCNC(=N)N)C(=O)N[C@@H](Cc4c[nH]cn4)C(=O)N[C@@H](Cc4ccc(O)cc4)C(=O)N[C@@H](CC(C)C)C(=O)N[C@@H](CC(N)=O)C(=O)N[C@@H](Cc4c[nH]c5ccccc45)C(=O)N[C@H](C(=O)N[C@H](C(=O)N[C@@H](CCCNC(=N)N)C(=O)N[C@@H](CCC(N)=O)C(=O)N(C)[C@@H](CCCNC(=N)N)C(=O)N[C@@H](Cc4ccc(O)cc4)C(N)=O)[C@@H](C)O)C(C)C)c(=O)c3c2)CC1)C(=O)O)C(=O)O` [Example 31] was tested. Which EC50 (Y5R) did it give?
**A.** 634 nM

**Q.** And the Emax (Y5R)?
**A.** 60%

**Q.** What about the EC50 (hNPY2R [1]) of the same molecule?
**A.** 0.07 nM

**Q.** And the EC50 (Y1R)?
**A.** > 5000 nM

**Q.** And the EC50 (Y4R)?
**A.** > 5000 nM

**Q.** And the EC50 (hNPY2R [2])?
**A.** 0.091 nM

**Q.** Which results are given for `CCCCCCCCCCCCCCCC(=O)NCCOCCOCCOCCOCCC(=O)NCCCC[C@H](NC(=O)[C@@H](N)[C@@H](C)CC)C(=O)N1CCN(c2ccc3ncn(CC(=O)N[C@@H](CCCNC(=N)N)C(=O)N[C@@H](Cc4c[nH]cn4)C(=O)N[C@@H](Cc4ccc(O)cc4)C(=O)N[C@@H](CC(C)C)C(=O)N[C@@H](CC(N)=O)C(=O)N[C@@H](Cc4c[nH]c5ccccc45)C(=O)N[C@H](C(=O)N[C@H](C(=O)N[C@@H](CCCNC(=N)N)C(=O)N[C@@H](CCC(N)=O)C(=O)N(C)[C@@H](CCCNC(=N)N)C(=O)N[C@@H](Cc4ccc(O)cc4)C(N)=O)[C@@H](C)O)C(C)C)c(=O)c3c2)CC1` [Example 32]?
**A.** EC50 (Y5R): 973 nM; Emax (Y5R): 28%; EC50 (hNPY2R [1]): 0.19 nM; EC50 (Y1R): > 5000 nM; EC50 (Y4R): > 5000 nM; EC50 (hNPY2R [2]): 0.26 nM

**Q.** For `CCCCCCCCCCCCCCCCCCCC(=O)NCCOCCOCCOCCOCCC(=O)NCCCC[C@H](NC(=O)[C@@H](N)[C@@H](C)CC)C(=O)N1CCN(c2ccc3ncn(CC(=O)N[C@@H](CCCNC(=N)N)C(=O)N[C@@H](Cc4c[nH]cn4)C(=O)N[C@@H](Cc4ccc(O)cc4)C(=O)N[C@@H](CC(C)C)C(=O)N[C@@H](CC(N)=O)C(=O)N[C@@H](Cc4c[nH]c5ccccc45)C(=O)N[C@H](C(=O)N[C@H](C(=O)N[C@@H](CCCNC(=N)N)C(=O)N[C@@H](CCC(N)=O)C(=O)N(C)[C@@H](CCCNC(=N)N)C(=O)N[C@@H](Cc4ccc(O)cc4)C(N)=O)[C@@H](C)O)C(C)C)c(=O)c3c2)CC1` [Example 33], which EC50 (Y5R) is on record?
**A.** 241 nM

**Q.** What about the Emax (Y5R) of the same molecule?
**A.** 53%

**Q.** And the EC50 (hNPY2R [1])?
**A.** 0.13 nM

**Q.** What about the EC50 (Y1R) of the same molecule?
**A.** > 5000 nM

**Q.** And the EC50 (Y4R)?
**A.** > 5000 nM

**Q.** What about the EC50 (hNPY2R [2]) of the same molecule?
**A.** 1.08 nM

**Q.** What does the source list for `CCCCCCCCCCCCCCCC(=O)NCCOCCOCCOCCC(=O)NCCCC[C@H](NC(=O)[C@@H](N)[C@@H](C)CC)C(=O)N1CCN(c2ccc3ncn(CC(=O)N[C@@H](CCCNC(=N)N)C(=O)N[C@@H](Cc4c[nH]cn4)C(=O)N[C@@H](Cc4ccc(O)cc4)C(=O)N[C@@H](CC(C)C)C(=O)N[C@@H](CC(N)=O)C(=O)N[C@@H](Cc4c[nH]c5ccccc45)C(=O)N[C@H](C(=O)N[C@H](C(=O)N[C@@H](CCCNC(=N)N)C(=O)N[C@@H](CCC(N)=O)C(=O)N(C)[C@@H](CCCNC(=N)N)C(=O)N[C@@H](Cc4ccc(O)cc4)C(N)=O)[C@@H](C)O)C(C)C)c(=O)c3c2)CC1` [Example 34]?
**A.** EC50 (Y5R): 2340 nM; Emax (Y5R): 80%; EC50 (hNPY2R [1]): 0.1 nM; EC50 (Y1R): > 5000 nM; EC50 (Y4R): > 5000 nM; EC50 (hNPY2R [2]): 0.003 nM

**Q.** `CCCCCCCCCCCCCCCCCCCC(=O)NCCOCCOCCOCCC(=O)NCCCC[C@H](NC(=O)[C@@H](N)[C@@H](C)CC)C(=O)N1CCN(c2ccc3ncn(CC(=O)N[C@@H](CCCNC(=N)N)C(=O)N[C@@H](Cc4c[nH]cn4)C(=O)N[C@@H](Cc4ccc(O)cc4)C(=O)N[C@@H](CC(C)C)C(=O)N[C@@H](CC(N)=O)C(=O)N[C@@H](Cc4c[nH]c5ccccc45)C(=O)N[C@H](C(=O)N[C@H](C(=O)N[C@@H](CCCNC(=N)N)C(=O)N[C@@H](CCC(N)=O)C(=O)N(C)[C@@H](CCCNC(=N)N)C(=O)N[C@@H](Cc4ccc(O)cc4)C(N)=O)[C@@H](C)O)C(C)C)c(=O)c3c2)CC1` [Example 35] was tested. Which EC50 (Y5R) did it give?
**A.** 501 nM

**Q.** And the Emax (Y5R)?
**A.** 65%

**Q.** And the EC50 (hNPY2R [1])?
**A.** 0.11 nM

**Q.** What about the EC50 (Y1R) of the same molecule?
**A.** > 5000 nM

**Q.** And the EC50 (Y4R)?
**A.** > 5000 nM

**Q.** What about the EC50 (hNPY2R [2]) of the same molecule?
**A.** 1.02 nM

From patent publication US20100179093A1, “Neoropeptide-2-Receptor (Y-2R) Agonists” (priority 2008, published 2010)
